Entries after “also recorded” stand apart in the source; their conditions may differ.
How the values were obtained:
Assay type in all cases: cell-based, human
[1] = system: hiPSC chondrogenic pellets; experiment: RNA-FISH of d28 pellets for WNT3A, WNT4 and COL2A1; settings: d28 pellets vs TGF-β3-treated
Description: RNA fluorescence in situ hybridization (RNA-FISH). […] Pellets were cryo-sectioned at 10 μm thick and fixed using 4% paraformaldehyde in PBS on ice for 10 min. Sample pre-treatment and RNA probe hybridization, amplification, and signal development were performed using the RNAscope Multiplex Fluorescent Reagent Kit v1 (Advanced Cell Diagnostics, #320850) following the manufacturer's instruction. Samples were imaged with multichannel confocal microscopy (Zeiss LSM 880). Tiled images with Z-stacks were taken at 20× magnification to capture the entire pellet. Maximum intensity projection, a process in which the brightest pixel (voxel) in each layer along Z direction is projected in the final 2D image, was performed using Zeiss Zen Blue (version 2.5).

[2] = system: hiPSC chondrogenic pellets; experiment: Biochemical analysis of cartilaginous matrix production (GAG/DNA) in hiPSC chondrogenic pellets; settings: 1 μM inhibitor + TGF-β3 during pellet culture, d28/d42, vs TGF-β3 or other regimens
Description: (§1) Chondrogenic differentiation. Cells dissociated at the Cp stage were resuspended at 5×10^5 cells per mL in chondrogenic medium consisting of DMEM/F-12, 1% FBS, 1% ITS+, 55 μM β-mertcaptoethanol, 100 nM dexamethasone (DEX; Sigma-Aldrich, #D4902), 1% NEAA (Gibco, #11140050), 1% P/S, 10 ng ml^−1 human transforming growth factor-beta 3 (TGF-β3; R&D Systems, #243-B3-010), 50 μg ml^−1 L-ascorbic acid 2-phosphate (ascorbate; Sigma-Aldrich, #A8960), and 40 μg ml^−1 L-Proline (proline; Sigma-Aldrich, #P5607). Cells were then centrifuged for 5 min at 300×g to form a pellet. Chondrogenic pellets were cultured at 37° C. for up to the timepoints required for various experiments.
WNT-C59 and ML329 treatment for WNT and MITF inhibition. For WNT-C59 treatment for WNT inhibition during chondrogenesis, pellets were treated with either 10 ng ml^−1 TGF-β3 (control group) or a combination of 10 ng ml^−1 TGF-β3 and 1 μM WNT-C59 in a chondrogenic medium from d0 to d42 as appropriate. […]
Biochemical analysis of cartilaginous matrix production. […] GAG content, as calculated based on the standard curve, was normalized to double-stranded DNA content to obtain the GAG/DNA ratio.

[3] = system: hiPSC chondrogenic pellets; experiment: Safranin-O histology of hiPSC chondrogenic pellets
Description: as §1
WNT-C59 and ML329 treatment for WNT and MITF inhibition. For WNT-C59 treatment for WNT inhibition during chondrogenesis, pellets were treated with either 10 ng ml^−1 TGF-β3 (control group) or a combination of 10 ng ml^−1 TGF-β3 and 1 μM WNT-C59 in a chondrogenic medium from d0 to d42 as appropriate. For WNT-C59 and ML329 treatment (ML, Axon Medchem, HY-101464) for WNT and MITF inhibition during chondrogenesis, pellets were treated with either 10 ng ml^−1 TGF-β3 (control group), a combination of 10 ng ml^−1 TGF-β3 and 1 μM ML, a combination of 10 ng ml^−1 TGF-β3 and 1 μM WNT-C59, or a combination of 10 ng ml^−1 TGF-β3, 1 μM ML and 1 μM WNT-C59 in chondrogenic medium from d0 to d42 as appropriate. […]

[4] = system: CD146/CD166+ cells at the Cp stage; experiment: FACS for progenitors at the Cp stage; settings: with BMP4, 1 μM WNT-C59 or 100 ng/ml WNT3A
Description: WNT ligands treatment during chondrogenesis. For WNT ligands treatment during chondrogenesis, pellets were treated with either 10 ng ml^−1 TGF-β3 (control group) or a combination of 10 ng ml^−1 TGF-β3 and 100 ng ml^−1 individual WNT ligand (WNT2B, WNT3A, WNT4, WNT5B, or WNT7B, all from R&D system) in chondrogenic medium from d0 to d42 as appropriate. For WNT ligands treatment during the Cp stage, cells were supplemented with either 20 ng ml^−1 BMP4 (R&D Systems, #314-BP-010) alone (control group), a combination of 20 ng ml^−1 BMP4 and 1 μM WNT-059, or a combination of 20 ng ml^−1 BMP4 and 100 ng ml^−1 WNT3A (R&D Systems, #5036-WN-010) in mesodermal differentiation medium from d7 to d12.
FACS for progenitors. […] Data were analyzed using FlowJo software (version 10.5.3).

Cc1cc(-c2ccc(CC(=O)Nc3ccc(-c4cccnc4)cc3)cc2)ccn1 [WNT-C59] was tested, and the “COL2A1 RNA-FISH labeling” value [1] was “more homogenous distribution; also recorded: increased”, the “WNT3A and WNT4 expression (RNA-FISH)” value [1] was “decreased” and the GAG/DNA ratio [2] was “significantly increased”. The “chondrogenesis when WNTs inhibited at the Cp stage” value ([3]; WNT-C59 at Cp stage) was “severely impaired”, the “chondrocyte homogeneity (Saf-O staining)” value ([3]; treatment during pellet culture, vs standard TGF-β3) was “increased” and the “percentage of CD146/CD166+ cells” value [4] was “largely decreased”.
